Experiments:
[1] = target: T1, human α1G T-type channels (Homo sapiens, UniProt O43497); test: T-type calcium channel block, whole cell patch clamp in HEK cells (α1G); format: cell-based; conditions: HEK cells, patch clamp, mainly non-inactivated protocol; values above 10 μM shown as 10 μM, below 0.30 μM shown as 0.30 μM; read-out: T-type Calcium Channel Block α1G IC50
T1 construct: expressed in transfected cells; host or cells: HEK 293

[2] = target: T2, human α1H T-type channels (Homo sapiens, UniProt O95180); test: T-type calcium channel block, whole cell patch clamp in HEK cells (α1H); format: cell-based; conditions: HEK cells, patch clamp, mainly non-inactivated protocol; values above 10 μM shown as 10 μM; read-out: T-type Calcium Channel Block α1H IC50
T2 construct: expressed in transfected cells; host or cells: HEK 293
T2 sequence (O95180 whole entry): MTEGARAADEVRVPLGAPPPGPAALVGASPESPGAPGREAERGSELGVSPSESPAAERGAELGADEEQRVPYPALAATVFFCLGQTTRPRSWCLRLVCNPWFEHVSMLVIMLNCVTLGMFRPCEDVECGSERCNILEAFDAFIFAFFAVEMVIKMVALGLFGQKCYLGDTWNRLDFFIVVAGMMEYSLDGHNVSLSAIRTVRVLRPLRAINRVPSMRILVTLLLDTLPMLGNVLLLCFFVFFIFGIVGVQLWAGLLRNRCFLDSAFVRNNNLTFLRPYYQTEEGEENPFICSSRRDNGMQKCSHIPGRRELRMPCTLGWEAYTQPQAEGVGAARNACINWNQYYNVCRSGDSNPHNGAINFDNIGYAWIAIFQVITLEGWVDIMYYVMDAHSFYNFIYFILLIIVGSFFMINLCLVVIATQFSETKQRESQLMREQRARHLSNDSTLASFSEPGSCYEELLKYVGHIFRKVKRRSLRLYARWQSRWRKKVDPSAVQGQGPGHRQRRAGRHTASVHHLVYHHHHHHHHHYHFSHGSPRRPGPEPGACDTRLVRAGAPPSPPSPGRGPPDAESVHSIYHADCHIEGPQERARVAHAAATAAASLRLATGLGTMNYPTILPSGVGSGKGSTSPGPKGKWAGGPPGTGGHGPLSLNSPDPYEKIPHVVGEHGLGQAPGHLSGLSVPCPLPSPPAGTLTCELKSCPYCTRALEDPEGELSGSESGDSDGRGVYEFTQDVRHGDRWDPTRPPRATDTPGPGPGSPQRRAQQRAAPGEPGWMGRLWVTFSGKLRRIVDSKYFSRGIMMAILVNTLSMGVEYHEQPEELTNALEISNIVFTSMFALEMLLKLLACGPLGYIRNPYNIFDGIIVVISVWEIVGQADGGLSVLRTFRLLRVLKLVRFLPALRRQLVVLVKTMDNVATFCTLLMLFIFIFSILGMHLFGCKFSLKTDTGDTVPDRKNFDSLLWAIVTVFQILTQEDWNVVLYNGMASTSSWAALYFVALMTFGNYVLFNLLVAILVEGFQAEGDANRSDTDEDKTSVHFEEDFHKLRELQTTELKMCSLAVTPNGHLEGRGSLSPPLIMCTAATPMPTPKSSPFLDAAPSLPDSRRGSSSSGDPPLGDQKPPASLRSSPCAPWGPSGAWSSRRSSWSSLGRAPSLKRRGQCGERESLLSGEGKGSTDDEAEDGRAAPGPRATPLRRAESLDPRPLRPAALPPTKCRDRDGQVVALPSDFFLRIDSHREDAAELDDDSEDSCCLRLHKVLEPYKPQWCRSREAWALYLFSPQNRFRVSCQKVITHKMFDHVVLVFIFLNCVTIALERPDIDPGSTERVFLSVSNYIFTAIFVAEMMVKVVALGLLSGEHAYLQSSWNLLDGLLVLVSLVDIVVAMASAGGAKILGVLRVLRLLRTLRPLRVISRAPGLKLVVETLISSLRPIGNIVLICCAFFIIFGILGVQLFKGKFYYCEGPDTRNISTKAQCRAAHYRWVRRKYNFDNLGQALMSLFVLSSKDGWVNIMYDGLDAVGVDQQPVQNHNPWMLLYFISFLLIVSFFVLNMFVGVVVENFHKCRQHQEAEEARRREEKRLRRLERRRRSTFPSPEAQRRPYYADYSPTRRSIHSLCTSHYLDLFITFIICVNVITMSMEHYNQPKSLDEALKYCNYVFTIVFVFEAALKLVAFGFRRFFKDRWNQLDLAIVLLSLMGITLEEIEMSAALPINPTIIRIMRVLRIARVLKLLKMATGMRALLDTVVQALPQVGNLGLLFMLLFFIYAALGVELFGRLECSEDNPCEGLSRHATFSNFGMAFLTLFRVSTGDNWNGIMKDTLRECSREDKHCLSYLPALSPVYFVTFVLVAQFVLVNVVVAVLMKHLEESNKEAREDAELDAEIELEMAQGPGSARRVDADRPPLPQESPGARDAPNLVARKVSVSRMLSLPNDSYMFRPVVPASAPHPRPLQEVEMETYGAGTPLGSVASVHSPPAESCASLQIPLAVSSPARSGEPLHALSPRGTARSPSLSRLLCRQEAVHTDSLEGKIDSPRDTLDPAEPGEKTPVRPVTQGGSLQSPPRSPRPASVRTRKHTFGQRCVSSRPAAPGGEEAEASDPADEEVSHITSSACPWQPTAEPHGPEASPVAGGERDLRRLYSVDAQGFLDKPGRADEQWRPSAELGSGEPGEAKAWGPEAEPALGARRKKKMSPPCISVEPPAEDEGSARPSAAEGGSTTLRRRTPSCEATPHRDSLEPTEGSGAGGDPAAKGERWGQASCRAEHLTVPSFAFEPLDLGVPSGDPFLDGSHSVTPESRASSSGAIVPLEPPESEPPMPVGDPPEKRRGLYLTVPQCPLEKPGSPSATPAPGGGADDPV

T1 sequence (O43497 whole entry): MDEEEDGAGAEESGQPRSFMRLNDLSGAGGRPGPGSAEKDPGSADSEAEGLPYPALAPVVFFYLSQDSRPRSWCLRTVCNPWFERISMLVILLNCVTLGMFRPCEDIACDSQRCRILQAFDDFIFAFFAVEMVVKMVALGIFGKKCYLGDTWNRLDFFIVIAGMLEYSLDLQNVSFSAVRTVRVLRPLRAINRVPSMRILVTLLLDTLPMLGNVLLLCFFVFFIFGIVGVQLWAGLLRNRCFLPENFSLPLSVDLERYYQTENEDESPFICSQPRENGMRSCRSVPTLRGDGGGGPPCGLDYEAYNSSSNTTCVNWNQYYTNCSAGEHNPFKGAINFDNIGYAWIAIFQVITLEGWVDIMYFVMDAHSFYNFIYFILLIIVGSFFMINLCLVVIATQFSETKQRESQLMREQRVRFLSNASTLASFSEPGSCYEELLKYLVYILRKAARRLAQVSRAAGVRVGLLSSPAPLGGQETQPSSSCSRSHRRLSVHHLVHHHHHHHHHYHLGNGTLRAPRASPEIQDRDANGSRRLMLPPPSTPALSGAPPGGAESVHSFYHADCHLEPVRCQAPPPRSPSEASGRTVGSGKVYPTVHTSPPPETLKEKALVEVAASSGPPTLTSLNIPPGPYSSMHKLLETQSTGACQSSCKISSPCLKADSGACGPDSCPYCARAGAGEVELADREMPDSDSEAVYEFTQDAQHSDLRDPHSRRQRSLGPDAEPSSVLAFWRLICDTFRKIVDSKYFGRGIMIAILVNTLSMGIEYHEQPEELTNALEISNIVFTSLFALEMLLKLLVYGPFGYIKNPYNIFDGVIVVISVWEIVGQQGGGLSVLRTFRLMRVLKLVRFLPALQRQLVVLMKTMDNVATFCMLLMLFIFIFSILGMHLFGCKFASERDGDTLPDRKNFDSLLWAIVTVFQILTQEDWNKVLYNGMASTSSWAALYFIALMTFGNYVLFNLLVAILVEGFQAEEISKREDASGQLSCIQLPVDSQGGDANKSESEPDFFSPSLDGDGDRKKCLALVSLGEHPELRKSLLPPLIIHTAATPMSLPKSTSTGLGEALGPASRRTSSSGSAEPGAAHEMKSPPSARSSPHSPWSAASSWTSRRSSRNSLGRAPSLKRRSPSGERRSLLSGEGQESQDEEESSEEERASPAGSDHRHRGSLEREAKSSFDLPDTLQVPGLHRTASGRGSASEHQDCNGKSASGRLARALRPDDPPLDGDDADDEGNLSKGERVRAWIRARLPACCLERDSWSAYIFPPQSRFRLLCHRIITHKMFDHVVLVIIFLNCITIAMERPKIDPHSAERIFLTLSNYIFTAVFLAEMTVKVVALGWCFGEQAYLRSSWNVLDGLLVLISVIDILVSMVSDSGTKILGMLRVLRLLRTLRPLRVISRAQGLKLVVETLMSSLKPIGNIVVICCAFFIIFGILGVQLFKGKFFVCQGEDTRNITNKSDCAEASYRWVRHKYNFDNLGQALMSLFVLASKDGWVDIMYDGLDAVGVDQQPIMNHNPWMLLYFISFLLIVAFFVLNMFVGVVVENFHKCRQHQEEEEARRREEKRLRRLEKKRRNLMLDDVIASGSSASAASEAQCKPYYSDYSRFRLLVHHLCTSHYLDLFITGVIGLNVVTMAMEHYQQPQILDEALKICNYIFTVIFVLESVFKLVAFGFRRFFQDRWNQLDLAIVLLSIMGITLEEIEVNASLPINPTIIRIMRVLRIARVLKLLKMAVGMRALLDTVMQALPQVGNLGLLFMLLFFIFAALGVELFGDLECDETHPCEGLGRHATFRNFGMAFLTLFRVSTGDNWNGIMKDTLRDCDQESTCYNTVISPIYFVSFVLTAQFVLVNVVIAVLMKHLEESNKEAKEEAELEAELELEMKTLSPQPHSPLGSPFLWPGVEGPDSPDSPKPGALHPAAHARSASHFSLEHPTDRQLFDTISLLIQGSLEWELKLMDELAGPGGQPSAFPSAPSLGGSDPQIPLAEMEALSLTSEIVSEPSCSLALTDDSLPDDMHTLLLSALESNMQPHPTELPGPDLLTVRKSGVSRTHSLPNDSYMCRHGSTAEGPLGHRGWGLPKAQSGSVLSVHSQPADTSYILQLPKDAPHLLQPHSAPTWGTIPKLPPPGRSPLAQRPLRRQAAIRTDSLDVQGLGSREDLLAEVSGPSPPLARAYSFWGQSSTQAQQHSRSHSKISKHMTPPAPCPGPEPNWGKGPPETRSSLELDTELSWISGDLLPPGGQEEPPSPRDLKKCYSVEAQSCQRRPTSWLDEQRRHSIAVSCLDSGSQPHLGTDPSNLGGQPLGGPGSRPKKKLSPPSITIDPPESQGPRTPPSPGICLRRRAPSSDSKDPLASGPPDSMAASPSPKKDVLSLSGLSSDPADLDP

SMILES	IC50 [1]	IC50 [2]
CC(C)(C)OC(=O)NCCN1CCC(CNC(=O)c2cccc(C(F)(F)F)c2)CC1 [Compound 39, tert-butyl 2-(4-((3-(trifluoromethyl)benzamido)methyl)piperidin-1-yl)ethylcarbamate]	1.31 µM	1.17 µM
CC(C)(C)c1ccc(C(=O)NCC2CCN(CCNS(=O)(=O)C3CC3)CC2)cc1 [Compound 238, 4-tert-butyl-N-((1-(2-(cyclopropanesulfonamido)ethyl)piperidin-4-yl)methyl)benzamide]	> 10 µM	> 10 µM
COc1cc(F)cc(C(=O)NCC2CCN(CCNS(=O)(=O)C(F)(F)F)CC2)c1 [Compound 325, 3-fluoro-5-methoy-N-((1-(2-(trifluoromethylsulfonamido)ethyl)piperidin-4-yl)methyl)benzamide]	6.58 µM	3.39 µM
O=C(/C=C/c1cc(Cl)cc(Cl)c1)NCC1CCN(CCNC(=O)CCC(F)(F)F)CC1 [Compound 316, (E)-N-(2-(4-((3-(3,5-dichlorophenyl)acrylamido)methyl)piperidin-4-1-yl)ethyl)-4,4,4-trifluorobutanamide]	> 10 µM	5.83 µM
CC(C)NC(=O)NC1(CN2CCC(CNC(=O)c3cc(C(F)(F)F)cc(C(F)(F)F)c3)CC2)CCCC1 [Compound 15, N-((1-((1-(3-isopropylureido)cyclopentyl)methyl)piperidin-4-yl)methyl)-3,5-bis(trifluoromethyl)benzamide]	1.03 µM	3.04 µM
O=C(NCC1CCN(CCNS(=O)(=O)C(F)(F)F)CC1)c1cc(C(F)(F)F)cc(C(F)(F)F)c1 [Compound 21, 3,5-bis(trifluoromethyl)-N-((1-(2-(trifluoromethylsulfonamido)ethyl)piperidin-4-yl)methyl)benzamide]	3.66 µM	0.59 µM
O=C(NCC1CCN(CCNS(=O)(=O)C2CC2)CC1)c1cc(F)cc(C(F)(F)F)c1 [Compound 230, N-((1-(2-(cyclopropanesulfonamido)ethyl)piperidin-4-yl)methyl)-3-fluoro-5-(trifluoromethyl)benzamide]	4.76 µM	0.85 µM

More lines, now with the values ahead:

IC50 [1]	IC50 [2]	SMILES
0.27 µM	0.37 µM	CC1(C(=O)NCCN2CCC(CNC(=O)c3cc(C(F)(F)F)cc(C(F)(F)F)c3)CC2)CC1 [Compound 337, N-((1-(2-(1-methylcyclopropanecarboxamido)ethyl)piperidin-4-yl)methyl)-3,5-bis(trifluoromethyl)benzamide]
6.91 µM	7.01 µM	CC(C)(C)NC(=O)CN1CCC(CNC(=O)/C=C/c2cc(F)cc(F)c2)CC1 [Compound 369, (E)-N-((1-(2-(tert-butylamino)-2-oxoethyl)piperidin-4-yl)methyl)-3-(3,5-difluorophenyl)acrylamide]
0.8 µM	2.42 µM	O=C(NCC1CCN(CCNS(=O)(=O)C2CC2)CC1)c1cc(Cl)sc1Cl [Compound 333, 2,5-dichloro-N-((1-(2-(cyclopropanesulfonamido)ethyl)piperidin-4-yl)methyl)thiophene-3-carboxamide]
9.73 µM	4.64 µM	CCCNC(=O)CN1CCC(CNC(=O)c2cc(OC)cc(OC)c2)CC1 [Compound 448, 3,5-dimethoxy-N-((1-(2-oxo-2-(propylamino)ethyl)piperidin-4-yl)methyl)benzamide]
< 0.3 µM	0.14 µM	Cc1cc(F)cc(C(=O)NCC2CCN(CC(=O)N3CCC[C@H]3C(F)(F)F)CC2)c1 [Compound 464, (S)-3-fluoro-5-methyl-N-((1-(2-oxo-2-(2-(trifluoromethyl)pyrrolidin-1-yl)ethyl)piperidin-4-yl)methyl)benzamide]
5.74 µM	0.91 µM	CN(CCN1CCC(CNC(=O)c2cc(F)cc(C(F)(F)F)c2)CC1)C(=O)NC(C)(C)C [Compound 523, N-((1-(2-(3-tert-butyl-1-methylureido)ethyl)piperidin-4-yl)methyl)-3-fluoro-5-(trifluoromethyl) benzamide]
